# Data: US11952368B2, “FAPI dimer compound, FAPI dimer-based positron emission tomography (PET) imaging agent for tumor diagnosis, and preparation method and use thereof” (XIAMEN UNIVERSITY, priority 2021, dated 2024)
# Tested on: lesions in the three cancer patients
# Test: PET/CT in tumor patients (NPC, thyroid cancer, HCC), SUVmax of lesions
# Type: in vivo, human
# Protocol: This experiment was approved by the Clinical Research Ethics Committee of the First Affiliated Hospital of Xiamen University, and all subjects signed a written informed consent form. Doses of ^68Ga-FAPI-46 and ^68Ga-2PEG(3)-FAPI-dimer for intravenous injection (1.8 MBq to 2.2 MBq [0.05 mCi to 0.06 mCi]/kg) were calculated according to a body weight of a patient. A cancer patient was administered with ^68Ga-2PEG(3)-FAPI-dimer and ^68Ga-FAPI-46 at an interval of 3 d. Data were acquired using a hybrid PET/CT scanner (Discovery MI, GE Healthcare, Milwaukee, WI, USA). A PET/CT image was acquired at 60 min after intravenous injection (a thyroid cancer patient was scanned twice at 60 min and 240 min after injection). A maximum standard uptake value (SUVmax) was automatically calculated with ROIs drawn on a transaxial image. PET/CT scanning was conducted at 60 min after the three patients were intravenously administered with ^68Ga-FAPI-46 and ^68Ga-2PEG(3)-FAPI-dimer, including a nasopharyngeal carcinoma (NPC) patient (non-keratinizing undifferentiated carcinoma, immunotherapy was conducted when the widespread bone metastasis occurred after chemoradiotherapy), a thyroid cancer patient (multiple cycles of radioactive iodine therapy were conducted after papillary thyroid carcinoma (PTC), total thyroidectomy, and lymph node dissection), and an HCC patient (untreated at preliminary diagnosis). The comparison of ^68Ga-FAPI-46 and ^68Ga-2PEG(3)-FAPI-dimer uptake among lesions in the three cancer patients was shown in Table 3.
# [1] = Patient 1 (NPC), PET/CT 60 min after i.v. injection
# [2] = Patient 2 (Thyroid cancer), PET/CT 60 min after i.v. injection
smiles,measurement,setting,value
CN(CCCN1CCN(C(=O)COCCOCCOCCNC(=O)CCC(=O)N[C@@H](CCCCNC(=O)CN2CCN(CC(=O)[O-])CCN(CC(=O)[O-])CCN(CC(=O)[O-])CC2)C(=O)NCCOCCOCCOCC(=O)N2CCN(CCCN(C)c3ccc4nccc(C(=O)NCC(=O)N5CC(F)(F)C[C@H]5C#N)c4c3)CC2)CC1)c1ccc2nccc(C(=O)NCC(=O)N3CC(F)(F)C[C@H]3C#N)c2c1.[68Ga+3] [^68Ga-2PEG(3)-FAPI-dimer],"SUVmax, Bone metastasis 1",[1],17.8
same,"SUVmax, Bone metastasis 2",[1],27.5
same,"SUVmax, Bone metastasis 3",[1],27.4
same,"SUVmax, Bone metastasis 4",[1],25.1
same,"SUVmax, Bone metastasis 5",[1],29.8
same,"SUVmax, Bone metastasis 6",[1],20.8
same,"SUVmax, Bone metastasis 7",[1],17.2
same,"SUVmax, Bone metastasis 8",[1],22.1
same,"SUVmax, Bone metastasis 10",[1],23.3
same,"SUVmax, Axillary lymph node 1",[2],23.2
same,"SUVmax, Axillary lymph node 2",[2],33.2
same,"SUVmax, Axillary lymph node 3",[2],28.9
same,"SUVmax, Bone metastasis 1",[2],26.4
same,"SUVmax, Cervical lymph node 1",[2],32.8
same,"SUVmax, Cervical lymph node 2",[2],8.1
same,"SUVmax, Hilar lymph node 1",[2],18.1
same,"SUVmax, Mediastinal lymph node 1",[2],24.6
same,"SUVmax, Supraclavicular lymph node 1",[2],39.0
same,"SUVmax, Supraclavicular lymph node 2",[2],24.1
same,"SUVmax, Primary tumor","Patient 3 (HCC), tumor with low FAP expression, PET/CT 60 min after i.v. injection",9.8
same,uptake compared with ^68Ga-FAPI-46 in the comparative analysis of single lesions,"three cancer patients, Table 3",significantly higher
